Data published in patent US12364752B2, “Methods of enhancing immunogenicity of poorly immunogenic antigen-specific vaccines using oral yeast beta-glucans” (priority 2018, dated 2025).

Assays:
[1] = Livingston et al. 1994; cited from earlier work
[2] = system: neuroblastoma; assay: Phase I trial of GD2/GD3 bivalent vaccine with oral beta-glucan; details: at 150 μg/m^2 s.c. with bivalent vaccine
Description: Patients with neuroblastoma in ≥2nd complete/very good partial remission received vaccine subcutaneously (at weeks 1, 2, 3, 8, 20, 32 and 52). The bivalent vaccine contained 30 μg each of GD2 and GD3 stabilized as lactones and conjugated to the immunologic carrier protein keyhole limpet hemocyanin (KLH); and OPT-821, which was dose escalated as 50, 75, 100, and 150 μg/m^2 per s.c. injection. Oral beta-glucan administration (40 mg/kg/day, 14 days on/14 days off x 12 cycles) was started at week 6 (FIG. 14).

[3] = system: Ramos tumor cells; assay: Ramos xenografts in SCID mice, Rituxan plus oral botanical adjuvants; format: in vivo; details: Rituxan alone at 5 μg dose
Description: SCID mice (Jackson Lab, Bar Harbor ME) were first implanted subcutaneously in the flank area with Ramos tumor cells (a human lymphoma cell line; Pagel et al., Blood 108:328-36 (2006)) freshly harvested from culture and suspended in 100 μl matrigel (BD Biosciences, Billerica MA). When small palpable tumors started to appear (6-8 mm size), mice were randomly separated into treatment groups of 5 mice each. Mice were then given either oral botanical adjuvant, intravenous Rituxan mAb, or oral botanical adjuvant plus Rituxan mAb for 3 weeks. MAb was given twice a week through the tail vein. 2 mg of the tested botanical adjuvant (20 mg/ml solution or suspension in LPS-free water) was given by intragastric injection for 5 times a week. Tumor sizes (length and width) were measured twice a week with calipers. Mice were sacrificed when tumors were larger than 20 mm in length. For each botanical adjuvant, two endpoints were obtained: (1) positive anti-tumor effect [defined as statistically different from control group (treated with antibody alone)] and (2) anti-tumor index defined as (Mean tumor growth rate in mice treated with antibody alone)/(Mean tumor growth rate in mice treated with botanical adjuvant+antibody).

Substance	maximal tolerated dose [1] [µg]	dose-limiting toxicity [2]	tumor growth suppressed [3] [%]
QS21	20	no dose-limiting toxicity	
Rituxan: rituximab mAb			30
